Experimental findings from ChEMBL document CHEMBL1201862, “PubChem BioAssay data set” (2004) are described below.

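48-hour exposure; five concentrations; linearly interpolated endpoints. GI50 is the concentration that inhibits growth by half.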 Activity calls are given as the source filed them. Rule as the data show it: active = GI50 up to about 1.1 µM and inactive = higher. Some results are limits rather than exact numbers.

Among the test systems are NCI-H460; ACHN; SK-MEL-5; SF-268; TK-10; SW-620; OVCAR-8; OVCAR-4; U-251; CCRF-CEM; MDA-N; IGROV-1; UACC-257; COLO 205; DU-145; NCI/ADR-RES; OVCAR-3; HCT-15.
Common to all, as to assay: NCI-60 cell line screen, 48 h

As for `Oc1ccc(Cl)cc1Cc1cc(Cl)cc(Cc2cc(Cl)ccc2O)c1O`, the GI50 with NCI-H460 was 1.77 µM (inactive); with ACHN it was 2.29 µM (inactive); with SK-MEL-5, 1.11 µM (active); with SF-268, 2.69 µM (inactive); in the experiment on TK-10, 2.72 µM (inactive); in the experiment with SW-620, 3.29 µM (inactive). In addition, the GI50 is 3.43 µM (inactive) in the experiment on OVCAR-8; 2.83 µM (inactive) in the experiment with OVCAR-4; 2.7 µM (inactive) in the experiment on U-251; 1.47 µM (inactive) in the experiment with CCRF-CEM; 2.66 µM (inactive) in the experiment with MDA-N; 3.2 µM (inactive) in the experiment with IGROV-1. Further, the GI50 with UACC-257 was 2.01 µM (inactive); in the experiment on COLO 205 it was 1.76 µM (inactive); in the experiment on DU-145 it was 2.96 µM (inactive); in the experiment with NCI/ADR-RES, 2.04 µM (inactive); in the experiment with OVCAR-3, 2.24 µM (inactive); in the experiment on HCT-15 it was 2.54 µM.
For `COc1ccc(OC)c(NC2=NCCO2)c1`, the GI50 in the experiment on NCI-H460 was > 100 µM (inactive); in the experiment on ACHN, > 100 µM (inactive); with SK-MEL-5, > 100 µM (inactive); with SF-268 it was > 100 µM (inactive); with TK-10, > 100 µM (inactive); with SW-620, 13.6 µM (inactive). In addition, the GI50 in the experiment on OVCAR-8 was > 100 µM (inactive); in the experiment with OVCAR-4, > 100 µM (inactive); in the experiment with U-251, > 100 µM (inactive); in the experiment with CCRF-CEM it was > 100 µM (inactive); in the experiment on MDA-N, 45.4 µM (inactive); with IGROV-1, > 100 µM (inactive). Further, the GI50 in the experiment with UACC-257 was > 100 µM (inactive); with COLO 205, > 100 µM (inactive); in the experiment on DU-145, > 100 µM (inactive); in the experiment with NCI/ADR-RES, > 100 µM (inactive); in the experiment on OVCAR-3, > 100 µM (inactive); in the experiment with HCT-15, over 100 µM.
For `CSC(SC)=C(C(=O)c1ccc(Cl)cc1)n1c(=O)sc2cc(Br)ccc21`, the GI50 in the experiment on NCI-H460, in the experiment on ACHN, with SK-MEL-5, in the experiment with SF-268, in the experiment with TK-10 and in the experiment on SW-620 was > 100 µM (inactive) each time. Also, the GI50 in the experiment with OVCAR-8 is > 100 µM (inactive); with OVCAR-4 it was 50.8 µM (inactive); in the experiment with U-251 it was > 100 µM (inactive); in the experiment on CCRF-CEM, 69.2 µM (inactive); in the experiment on MDA-N, > 100 µM (inactive); with IGROV-1, > 100 µM (inactive). Also, the GI50 with UACC-257 is > 100 µM (inactive); in the experiment with COLO 205, 66.4 µM (inactive); with DU-145, > 100 µM (inactive); in the experiment on NCI/ADR-RES it was > 100 µM (inactive); in the experiment on OVCAR-3, > 100 µM (inactive); with HCT-15, over 100 µM.
Turning to `O=C(N/N=C\c1ccccc1)Nc1cccc2ccccc12`, the GI50 was 27.7 µM (inactive) with NCI-H460; 18.1 µM (inactive) with ACHN; 12.1 µM (inactive) in the experiment with SK-MEL-5; 57 µM (inactive) in the experiment with SF-268; 42.9 µM (inactive) in the experiment on TK-10; 33.8 µM (inactive) in the experiment with SW-620. For the same compound, the GI50 with OVCAR-8 was 27.9 µM (inactive); in the experiment with OVCAR-4 it was 33.5 µM (inactive); in the experiment on U-251, 30.3 µM (inactive); with CCRF-CEM, > 100 µM (inactive); in the experiment on MDA-N it was 25.1 µM (inactive); with IGROV-1 it was 24.7 µM (inactive). Also, the GI50 in the experiment on UACC-257 is 78.2 µM (inactive); in the experiment on COLO 205, 48.3 µM (inactive); in the experiment with DU-145, > 100 µM (inactive); with NCI/ADR-RES, 87.7 µM (inactive); in the experiment on OVCAR-3, > 100 µM (inactive); in the experiment on HCT-15 it was 74 µM.
As to `CCC(C)C(=O)OC1C(=O)OC2CC3C(C)=CC(=O)C(O)C3(C)C3C4(O)OCC23C1C(C)C4O` (stereo not drawn), the GI50 in the experiment on NCI-H460 was < 0.014 µM (active); in the experiment on ACHN it was < 0.0171 µM (active); in the experiment with SK-MEL-5 it was < 0.0108 µM (active); with SF-268, < 0.0188 µM (active); in the experiment on TK-10, < 0.0188 µM (active); in the experiment with SW-620 it was 0.0136 µM (active). Besides, the GI50 with OVCAR-8 is < 0.01 µM (active); in the experiment on OVCAR-4 it was 0.0314 µM (active); in the experiment on U-251 it was < 0.0107 µM (active); in the experiment with CCRF-CEM, < 0.0131 µM (active); in the experiment with MDA-N, < 0.0169 µM (active); in the experiment with IGROV-1, < 0.01 µM (active). Also, the GI50 in the experiment with UACC-257 was 0.0223 µM (active); with COLO 205, 0.205 µM (active); with DU-145, < 0.019 µM (active); in the experiment on NCI/ADR-RES, 0.347 µM (active); in the experiment on OVCAR-3, < 0.0199 µM (active); with HCT-15, under 0.0185 µM.
For the compound `C=C(Br)CNCC(=C)Br`, the GI50 in the experiment with NCI-H460 was > 100 µM (inactive); with ACHN it was > 100 µM (inactive); in the experiment on SK-MEL-5, 89.7 µM (inactive); in the experiment with SF-268, > 100 µM (inactive); in the experiment with TK-10 it was > 100 µM (inactive); in the experiment on SW-620 it was > 100 µM (inactive). The GI50 with OVCAR-8 is > 100 µM (inactive); in the experiment on OVCAR-4, > 100 µM (inactive); with U-251, > 100 µM (inactive); with CCRF-CEM, 76.2 µM (inactive); with MDA-N, > 100 µM (inactive); in the experiment with IGROV-1, > 100 µM (inactive). Moreover, the GI50 in the experiment with UACC-257 was 29 µM (inactive); with COLO 205, 52 µM (inactive); in the experiment on DU-145, > 100 µM (inactive); in the experiment on NCI/ADR-RES it was > 100 µM (inactive); in the experiment with OVCAR-3, 30.8 µM (inactive); with HCT-15, over 100 µM.
As for `C[C@H]1[C@H](C)N1CC(O)Cn1ccnc1[N+](=O)[O-]` (stereo partly drawn), the GI50 with NCI-H460, in the experiment on ACHN, with SK-MEL-5, in the experiment on SF-268, in the experiment on TK-10 and in the experiment with SW-620 was > 100 µM (inactive) each time. Also, the GI50 with OVCAR-8 is > 100 µM (inactive); in the experiment on OVCAR-4, > 100 µM (inactive); in the experiment on U-251, > 100 µM (inactive); with CCRF-CEM, > 91.6 µM (inactive); in the experiment on MDA-N, > 100 µM (inactive); in the experiment on IGROV-1, > 100 µM (inactive). Moreover, the GI50 in the experiment with UACC-257 was > 100 µM (inactive); in the experiment with COLO 205, > 100 µM (inactive); in the experiment on DU-145, > 100 µM (inactive); with NCI/ADR-RES, > 100 µM (inactive); in the experiment with OVCAR-3, > 100 µM (inactive); with HCT-15, over 100 µM.
Turning to `CC(C)OP(=O)(OC(C)C)/C(C#N)=C/c1c[nH]c2ccccc12`, the GI50 is > 100 µM (inactive) with NCI-H460; 86.3 µM (inactive) in the experiment with ACHN; 51.3 µM (inactive) in the experiment with SK-MEL-5; > 100 µM (inactive) in the experiment on SF-268; > 100 µM (inactive) in the experiment with TK-10; > 100 µM (inactive) in the experiment on SW-620. Moreover, the GI50 is 54.6 µM (inactive) with OVCAR-8; 86.5 µM (inactive) in the experiment on OVCAR-4; > 100 µM (inactive) in the experiment with U-251; 35.6 µM (inactive) in the experiment with CCRF-CEM; > 100 µM (inactive) with MDA-N; > 100 µM (inactive) in the experiment on IGROV-1. In addition, the GI50 with UACC-257 is 54.3 µM (inactive); with COLO 205, 88.9 µM (inactive); in the experiment on DU-145 it was > 100 µM (inactive); in the experiment on NCI/ADR-RES it was 21.7 µM (inactive); in the experiment with OVCAR-3, 34 µM (inactive); in the experiment with HCT-15, over 100 µM.
With `CCN1C(NN)=NS(=O)(=O)c2ccccc21`, the GI50 with NCI-H460, with ACHN, in the experiment with SK-MEL-5, in the experiment with SF-268, in the experiment on TK-10 and in the experiment with SW-620 was > 100 µM (inactive) in each case. The GI50 in the experiment on OVCAR-8, with OVCAR-4, in the experiment with U-251, with CCRF-CEM, in the experiment on MDA-N and with IGROV-1 was > 100 µM (inactive) throughout. The GI50 is > 100 µM (inactive) in the experiment with UACC-257; > 100 µM (inactive) in the experiment with COLO 205; > 100 µM (inactive) with DU-145; > 100 µM (inactive) in the experiment with NCI/ADR-RES; > 100 µM (inactive) in the experiment with OVCAR-3; over 100 µM in the experiment on HCT-15.
For the compound `CCOC(=O)NC(Nc1ccc(S(=O)(=O)Nc2ccc(OC)nn2)cc1)(C(F)(F)F)C(F)(F)F`, the GI50 was 41.6 µM (inactive) with NCI-H460; 27 µM (inactive) in the experiment with ACHN; 17.8 µM (inactive) in the experiment with SK-MEL-5; 36.1 µM (inactive) in the experiment on SF-268; 27.7 µM (inactive) in the experiment with TK-10; 44.1 µM (inactive) in the experiment with SW-620. For the same compound, the GI50 is 38.2 µM (inactive) with OVCAR-8; 26.7 µM (inactive) in the experiment on OVCAR-4; 17.9 µM (inactive) in the experiment with U-251; 26.5 µM (inactive) in the experiment on CCRF-CEM; 42 µM (inactive) in the experiment with MDA-N; 22.8 µM (inactive) in the experiment with IGROV-1. In addition, the GI50 with UACC-257 is 33.1 µM (inactive); in the experiment with COLO 205, 21.9 µM (inactive); in the experiment with DU-145, 43.5 µM (inactive); with NCI/ADR-RES, 23.9 µM (inactive); in the experiment on OVCAR-3, 20.7 µM (inactive); with HCT-15, 49.1 µM.
With `O=C(CCN1CCCCC1)Nc1ccc2sc3ccccc3c(=O)c2n1`, the GI50 with NCI-H460 was 13.7 µM (inactive); in the experiment with ACHN, 10.2 µM (inactive); with SK-MEL-5 it was 21.6 µM (inactive); with SF-268 it was 16.3 µM (inactive); with TK-10, 15.7 µM (inactive); with SW-620, 8.3 µM (inactive). For the same compound, the GI50 is > 10 µM (inactive) with OVCAR-8; 16 µM (inactive) with OVCAR-4; 14.6 µM (inactive) with U-251; 7.91 µM (inactive) with CCRF-CEM; 14.3 µM (inactive) with MDA-N; 13.4 µM (inactive) in the experiment on IGROV-1. Besides, the GI50 in the experiment with UACC-257 is 19.7 µM (inactive); with COLO 205, 8.32 µM (inactive); with DU-145, 18.4 µM (inactive); with NCI/ADR-RES, 7.67 µM (inactive); in the experiment with OVCAR-3 it was 15.8 µM (inactive); in the experiment on HCT-15, 15.1 µM.
